Common to all, as to test: biochemical
Parameters in all cases: KINOMEscan competition binding panel (Eurofins DiscoverX), single concentration, % inhibition
What all share (conditions): read-out: 7 at 1 µM % inhibition

Experiment [1] deals with T1, ABL1(F317L)-phosphorylated (Homo sapiens, UniProt P00519, F317L).
T1 construct: phosphorylated
A digest of the protocol: (§1)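 KINOMEscan selectivity screen; >400 human kinases; compound at 1 µM, single concentration.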

The target of a further experiment is AURKA (Homo sapiens, UniProt O14965). The gist of the method:
as §1

A further experiment concerns the target BLK (Homo sapiens, UniProt P51451). A digest of the protocol:
as §1

The target of a further experiment is CAMK2D (Homo sapiens, UniProt Q13557). The gist of the method:
as §1

The target of the next experiment is CAMK4 (Homo sapiens, UniProt Q16566). A digest of the protocol: as §1
The target of another experiment is T2, CDC2L5 (Homo sapiens, UniProt Q14004).
T2 construct: gene CDK13
The gist of the method: as §1

The target of another experiment is CHEK2 (Homo sapiens, UniProt O96017). The gist of the method: as §1
A further experiment has as its target CLK4 (Homo sapiens, UniProt Q9HAZ1). The gist of the method: as §1
The next experiment deals with CSNK1G1 (Homo sapiens, UniProt Q9HCP0). The gist of the method: as §1
For the next experiment, the target named is DAPK3 (Homo sapiens, UniProt O43293). A digest of the protocol: as §1
For the next experiment, the target named is ERBB3 (Homo sapiens, UniProt P21860). The gist of the method: as §1
The next experiment addresses FLT3(N841I) (Homo sapiens, UniProt P36888, N841I). A digest of the protocol:
as §1

A further experiment addresses LATS1 (Homo sapiens, UniProt O95835). The gist of the method:
as §1

The target of another experiment is LRRK2 (Homo sapiens, UniProt Q5S007). The gist of the method: as §1
In another experiment the target is PIK3CG (Homo sapiens, UniProt P48736). A digest of the protocol: as §1
Another experiment deals with PIP5K1A (Homo sapiens, UniProt Q99755). A digest of the protocol:
as §1

Another experiment concerns the target PRKD3 (Homo sapiens, UniProt O94806). A digest of the protocol:
as §1

The target of another experiment is PRKX (Homo sapiens, UniProt P51817). A digest of the protocol:
as §1

In another experiment the target is RIOK2 (Homo sapiens, UniProt Q9BVS4). The gist of the method: as §1
Another experiment addresses RIPK4 (Homo sapiens, UniProt P57078). A digest of the protocol:
as §1

The target in the next experiment is TAOK2 (Homo sapiens, UniProt Q9UL54). The gist of the method: as §1
The target of the next experiment is T3, TRKB (Homo sapiens, UniProt Q16620).
T3 construct: gene NTRK2
The gist of the method:
as §1

The target of a further experiment is T4, VEGFR2 (Homo sapiens, UniProt P35968).
T4 construct: gene KDR
A digest of the protocol:
as §1

In another experiment the target is T5, YANK2 (Homo sapiens, UniProt Q9NY57).
T5 construct: gene STK32B
A digest of the protocol: as §1

Sequence of CAMK2D (Q13557 whole entry): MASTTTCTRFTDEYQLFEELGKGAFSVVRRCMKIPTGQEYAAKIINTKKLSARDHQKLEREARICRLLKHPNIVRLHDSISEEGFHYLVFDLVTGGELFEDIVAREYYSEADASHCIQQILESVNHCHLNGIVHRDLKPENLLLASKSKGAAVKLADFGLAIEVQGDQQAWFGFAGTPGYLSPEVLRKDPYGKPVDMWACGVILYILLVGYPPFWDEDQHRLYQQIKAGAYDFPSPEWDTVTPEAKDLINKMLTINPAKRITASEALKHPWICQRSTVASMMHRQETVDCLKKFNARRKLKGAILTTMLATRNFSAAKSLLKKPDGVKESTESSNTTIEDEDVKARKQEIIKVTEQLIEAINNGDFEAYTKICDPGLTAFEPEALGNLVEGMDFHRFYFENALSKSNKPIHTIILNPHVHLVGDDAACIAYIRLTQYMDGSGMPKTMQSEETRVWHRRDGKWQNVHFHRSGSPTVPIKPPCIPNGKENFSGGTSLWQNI
Sequence of PIK3CG (P48736 whole entry): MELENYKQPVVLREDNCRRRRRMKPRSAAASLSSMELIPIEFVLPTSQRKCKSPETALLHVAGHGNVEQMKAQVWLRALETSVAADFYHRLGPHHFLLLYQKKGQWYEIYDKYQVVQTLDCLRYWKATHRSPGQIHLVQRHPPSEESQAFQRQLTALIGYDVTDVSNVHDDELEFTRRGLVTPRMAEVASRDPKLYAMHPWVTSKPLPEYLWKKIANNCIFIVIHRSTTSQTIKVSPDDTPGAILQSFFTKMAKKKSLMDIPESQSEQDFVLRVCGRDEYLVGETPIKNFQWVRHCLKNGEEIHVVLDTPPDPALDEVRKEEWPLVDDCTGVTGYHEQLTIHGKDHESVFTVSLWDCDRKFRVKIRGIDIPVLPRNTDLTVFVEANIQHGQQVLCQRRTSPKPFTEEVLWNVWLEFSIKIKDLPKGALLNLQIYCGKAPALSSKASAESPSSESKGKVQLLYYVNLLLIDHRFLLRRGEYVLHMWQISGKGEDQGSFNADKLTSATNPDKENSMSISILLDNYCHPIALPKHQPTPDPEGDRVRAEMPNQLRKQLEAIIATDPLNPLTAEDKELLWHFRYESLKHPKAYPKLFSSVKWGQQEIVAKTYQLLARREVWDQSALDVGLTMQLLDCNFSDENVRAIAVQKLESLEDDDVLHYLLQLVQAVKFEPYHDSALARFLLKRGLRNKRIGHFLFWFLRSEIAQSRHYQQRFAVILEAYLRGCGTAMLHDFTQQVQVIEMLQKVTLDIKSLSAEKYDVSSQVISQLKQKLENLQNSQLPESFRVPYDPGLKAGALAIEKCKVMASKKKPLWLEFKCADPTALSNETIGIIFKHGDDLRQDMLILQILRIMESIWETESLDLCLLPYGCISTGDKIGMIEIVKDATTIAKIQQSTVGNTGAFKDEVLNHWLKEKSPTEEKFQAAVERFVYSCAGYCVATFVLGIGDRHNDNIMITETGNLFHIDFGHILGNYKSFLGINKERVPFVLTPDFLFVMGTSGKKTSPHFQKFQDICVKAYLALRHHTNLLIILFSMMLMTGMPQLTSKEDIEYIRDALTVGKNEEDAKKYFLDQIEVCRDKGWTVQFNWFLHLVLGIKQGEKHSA
Sequence of CSNK1G1 (Q9HCP0 whole entry): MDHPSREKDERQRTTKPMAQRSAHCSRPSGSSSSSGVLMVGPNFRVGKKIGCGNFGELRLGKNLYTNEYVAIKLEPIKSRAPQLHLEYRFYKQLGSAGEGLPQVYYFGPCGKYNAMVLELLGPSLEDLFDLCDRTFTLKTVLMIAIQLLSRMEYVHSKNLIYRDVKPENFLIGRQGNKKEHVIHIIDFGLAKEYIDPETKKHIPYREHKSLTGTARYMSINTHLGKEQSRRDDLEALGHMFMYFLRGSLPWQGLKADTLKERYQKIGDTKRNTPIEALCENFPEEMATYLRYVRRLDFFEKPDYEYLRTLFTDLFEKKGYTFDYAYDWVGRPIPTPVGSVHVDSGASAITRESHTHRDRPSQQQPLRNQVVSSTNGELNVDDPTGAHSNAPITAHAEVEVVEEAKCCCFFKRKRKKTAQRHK
T5 sequence (Q9NY57 whole entry): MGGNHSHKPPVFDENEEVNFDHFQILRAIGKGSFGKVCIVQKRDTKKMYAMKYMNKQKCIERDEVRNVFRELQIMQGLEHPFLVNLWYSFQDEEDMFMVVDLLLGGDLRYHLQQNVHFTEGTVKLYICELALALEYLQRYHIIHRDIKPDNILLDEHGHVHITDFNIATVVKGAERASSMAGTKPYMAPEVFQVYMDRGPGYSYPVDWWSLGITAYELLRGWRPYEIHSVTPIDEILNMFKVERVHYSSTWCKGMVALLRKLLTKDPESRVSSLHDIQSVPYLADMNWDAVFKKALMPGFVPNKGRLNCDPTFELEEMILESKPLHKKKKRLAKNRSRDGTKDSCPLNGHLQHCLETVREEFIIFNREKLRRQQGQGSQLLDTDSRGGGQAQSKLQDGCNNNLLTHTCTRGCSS
T1 sequence (P00519 whole entry F317L): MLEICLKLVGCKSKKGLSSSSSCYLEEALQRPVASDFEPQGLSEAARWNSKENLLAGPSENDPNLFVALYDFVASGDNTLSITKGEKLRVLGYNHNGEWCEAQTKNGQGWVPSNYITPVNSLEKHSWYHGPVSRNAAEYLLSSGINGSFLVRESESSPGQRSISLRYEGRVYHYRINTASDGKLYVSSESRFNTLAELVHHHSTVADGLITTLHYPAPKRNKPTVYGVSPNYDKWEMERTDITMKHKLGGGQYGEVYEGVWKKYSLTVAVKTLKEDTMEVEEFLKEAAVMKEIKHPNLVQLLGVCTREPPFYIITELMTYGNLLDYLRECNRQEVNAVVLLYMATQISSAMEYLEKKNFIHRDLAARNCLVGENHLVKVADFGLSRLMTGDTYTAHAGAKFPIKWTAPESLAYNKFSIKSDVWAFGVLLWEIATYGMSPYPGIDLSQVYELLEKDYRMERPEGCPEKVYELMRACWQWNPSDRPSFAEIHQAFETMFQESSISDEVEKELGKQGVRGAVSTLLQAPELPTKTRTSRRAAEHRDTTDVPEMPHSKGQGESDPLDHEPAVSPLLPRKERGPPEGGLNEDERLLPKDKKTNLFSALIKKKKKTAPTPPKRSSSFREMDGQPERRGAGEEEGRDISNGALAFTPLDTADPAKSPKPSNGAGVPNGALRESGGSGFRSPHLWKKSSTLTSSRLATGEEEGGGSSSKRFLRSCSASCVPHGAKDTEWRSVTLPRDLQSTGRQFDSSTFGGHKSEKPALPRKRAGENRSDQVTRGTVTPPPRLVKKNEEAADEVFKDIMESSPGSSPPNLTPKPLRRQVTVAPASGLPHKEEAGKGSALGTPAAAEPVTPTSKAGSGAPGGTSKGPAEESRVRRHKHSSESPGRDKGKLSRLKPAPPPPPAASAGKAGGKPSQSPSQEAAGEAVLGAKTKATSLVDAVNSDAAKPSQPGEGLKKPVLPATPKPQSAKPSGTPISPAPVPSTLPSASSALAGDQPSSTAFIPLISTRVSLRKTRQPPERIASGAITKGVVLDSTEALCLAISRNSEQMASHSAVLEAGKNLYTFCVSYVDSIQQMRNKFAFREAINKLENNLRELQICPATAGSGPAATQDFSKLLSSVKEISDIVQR
Sequence of RIPK4 (P57078 whole entry): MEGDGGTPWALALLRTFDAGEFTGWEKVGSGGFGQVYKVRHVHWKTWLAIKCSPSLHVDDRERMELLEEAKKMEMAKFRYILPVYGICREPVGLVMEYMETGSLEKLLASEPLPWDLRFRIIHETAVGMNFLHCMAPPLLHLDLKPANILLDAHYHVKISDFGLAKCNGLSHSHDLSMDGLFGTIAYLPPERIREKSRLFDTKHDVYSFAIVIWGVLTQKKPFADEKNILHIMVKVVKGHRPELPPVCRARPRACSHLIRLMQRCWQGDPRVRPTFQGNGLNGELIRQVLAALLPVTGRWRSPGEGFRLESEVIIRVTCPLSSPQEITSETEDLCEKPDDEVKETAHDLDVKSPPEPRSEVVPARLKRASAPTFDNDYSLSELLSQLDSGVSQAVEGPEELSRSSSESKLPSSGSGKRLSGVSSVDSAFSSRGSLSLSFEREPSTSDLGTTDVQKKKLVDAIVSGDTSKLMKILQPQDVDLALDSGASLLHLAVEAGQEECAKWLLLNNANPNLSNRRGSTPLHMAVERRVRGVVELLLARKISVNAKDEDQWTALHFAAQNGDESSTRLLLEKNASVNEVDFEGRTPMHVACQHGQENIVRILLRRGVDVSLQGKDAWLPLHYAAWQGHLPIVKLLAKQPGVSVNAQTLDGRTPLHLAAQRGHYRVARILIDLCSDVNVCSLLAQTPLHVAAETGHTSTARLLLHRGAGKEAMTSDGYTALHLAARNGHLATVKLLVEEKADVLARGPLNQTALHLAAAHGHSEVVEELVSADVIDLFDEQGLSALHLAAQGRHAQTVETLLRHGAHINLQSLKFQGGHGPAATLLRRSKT
Sequence of RIOK2 (Q9BVS4 whole entry): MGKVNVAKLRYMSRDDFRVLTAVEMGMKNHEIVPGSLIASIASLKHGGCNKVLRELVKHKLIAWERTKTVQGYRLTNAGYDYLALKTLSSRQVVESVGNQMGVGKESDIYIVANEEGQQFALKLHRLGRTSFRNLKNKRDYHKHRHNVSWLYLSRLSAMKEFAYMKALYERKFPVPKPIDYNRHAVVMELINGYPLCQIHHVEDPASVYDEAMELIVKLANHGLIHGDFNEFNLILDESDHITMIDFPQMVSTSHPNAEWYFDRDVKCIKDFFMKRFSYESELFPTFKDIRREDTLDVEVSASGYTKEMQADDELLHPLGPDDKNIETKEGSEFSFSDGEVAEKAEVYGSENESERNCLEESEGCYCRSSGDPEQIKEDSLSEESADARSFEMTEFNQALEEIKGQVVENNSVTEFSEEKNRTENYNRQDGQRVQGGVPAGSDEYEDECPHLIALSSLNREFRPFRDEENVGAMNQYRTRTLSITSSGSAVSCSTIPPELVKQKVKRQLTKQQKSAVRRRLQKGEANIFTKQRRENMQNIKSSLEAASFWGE

For `CNS(=O)(=O)c1ccc(N(C)C)c(Nc2ncnc3cc(OC)c(OC)cc23)c1` [compound 7, 3-((6,7-dimethoxyquinazolin-4-yl)amino)-4-(dimethylamino)-N-methylbenzenesulfonamide], the inhibition at 1 µM in experiment [1] was found to be 0%; at AURKA, 16%; at BLK, 29%; on CAMK2D, 0%; at CAMK4, 0%; on CDC2L5, 0%. The inhibition at 1 µM on CHEK2 was found to be 11%; at CLK4, 13%; at CSNK1G1 it was 0%; on DAPK3 it was 9%; on ERBB3 it was 31%; at FLT3(N841I), 0%. For the same compound, the inhibition at 1 µM on LATS1 was determined as 0%; at LRRK2 it was 9%; on PIK3CG it was 45%; on PIP5K1A, 0%; at PRKD3 it was 7%; at PRKX, 0%. The inhibition at 1 µM was determined as 0% on RIOK2; 0% at RIPK4; 20% at TAOK2; 14% on TRKB; 26% on VEGFR2; 0% at YANK2.

Values taken from paper PMC7180948, “New Insights into 4-Anilinoquinazolines as Inhibitors of Cardiac Troponin I–Interacting Kinase (TNNi3K)” (Molecules, 2020).
